Measurements as given in patent publication US6500821B1, “4-amino-1-aryl-1,5-dihydropyrrol-2-ones and process for making” (Arzneimittelwerk Dresden GmbH, priority 1999, dated 2002).

What was measured:
maximal electroshock = assay: Anticonvulsive action, maximal electroshock (MES), mouse i.p.; type: in vivo; details: for responders at 300 mg/kg / responders at 100 mg/kg: ip, read-out: Action, % of the protected animals
Method: (§1) Compounds according to the present invention were tested in vivo for their anticonvulsive action as shown in Table 1 in mice by i.p. administration, or in rats administered orally according to the internationally customary standard (Pharmac. Weekblad, Sc.Ed. 14 132 (1992) and Antiepileptic Drugs, Third Ed., Raven Press, New York 1989). [table]

s.c. pentetrazole = assay: Anticonvulsive action, s.c. pentetrazole (PTZ), mouse i.p.; type: in vivo; details: for responders at 300 mg/kg / responders at 100 mg/kg: ip, read-out: Action, % of the protected animals
Method: as §1

Vogel Conflict Test = assay: Vogel Conflict Test; type: in vivo, rat
Description: In this model, continuous access to drinking water is withheld from rats for a certain time. After this period, free access is given to drinking water, but is coupled with a mild electrical stimulation. The conflict for the animals is between accepting the electrical stimulation or going without a drink.
The reactions to a conflict situation of this type are similar to the secondary phenomena of anxiety in man. The resulting avoidance reactions can be suppressed by anxiolytic substances. As a measure of the anxiolytic action, the number of tolerated current pulses of the animals treated with the test substance is assessed in comparison to the vehicle-treated control group.

SMILES	responders at 300 mg/kg (maximal electroshock) [%]	melting point [°C]	responders at 100 mg/kg (maximal electroshock; dose 100 mg/kg) [%]	responders at 100 mg/kg (s.c. pentetrazole; dose 100 mg/kg) [%]	further results
O=C1C=C(N2CCCCC2)CN1c1ccc(F)c(Cl)c1 [Compound 16, 1-(3-chloro-4-fluorophenyl)-4-piperidin-1-yl-1,5-dihydropyrrol-2-one]	100	195 to 196	–	–	responders at 300 mg/kg (s.c. pentetrazole): 0%
NC(=O)N1c2ccccc2C=Cc2ccccc21 [Carbamazepin, reference compound]	–	–	–	–	Action, % of the protected animals (maximal electroshock; dose 100 mg/kg): 100%; Action, % of the protected animals (s.c. pentetrazole; dose 100 mg/kg): 0%
O=C1C=C(N2CCOCC2)CN1c1ccccc1 [Compound 25, 4-morpholin-4-yl-1-phenyl-1,5-dihydropyrrol-2-one]	–	161 to 164	40	66	–
CN1CCN=C(c2ccccc2)c2cc(Cl)ccc21 [Medazepam, medazepam]	–	–	–	–	anxiolytic action (in words) (Vogel Conflict Test; dose range from 0.3 to 3 mg/kg p.o.): not possible to detect; Changed number of impulses to the control in % (Vogel Conflict Test; rat, 0.3 mg/kg p.o.): 100%; Changed number of impulses to the control in % (Vogel Conflict Test; rat, 1.0 mg/kg p.o.): 131%; Changed number of impulses to the control in % (Vogel Conflict Test; rat, 3 mg/kg p.o.): 78%
CC1CCCCN1C1=CC(=O)N(c2ccc(Cl)cc2)C1 (stereo not shown) [Compound 20, 1-(4-chlorophenyl)-4-(2-methylpiperidin-1-yl)-1,5-dihydropyrrol-2-one]	66	181 to 185	–	40	–
CCN(CC)C1=CC(=O)N(c2ccc(Cl)cc2)C1 [Compound 23, 1-(4-chlorophenyl)-4-(diethylamino)-1,5-dihydropyrrol-2-one]	50	165 to 168	–	–	responders at 300 mg/kg (s.c. pentetrazole): 66%
CN1C(=O)CN=C(c2ccccc2)c2cc(Cl)ccc21 [Diazepam, diazepam]	–	–	–	–	Changed number of impulses to the control in % (Vogel Conflict Test; rat, 0.1 mg/kg p.o.): 94%; Changed number of impulses to the control in % (Vogel Conflict Test; rat, 0.3 mg/kg p.o.): 114%; Changed number of impulses to the control in % (Vogel Conflict Test; rat, 1.0 mg/kg p.o.): 148%; Changed number of impulses to the control in % (Vogel Conflict Test; rat, 3 mg/kg p.o.): 167%
O=C1CN=C(c2ccccc2Cl)c2cc([N+](=O)[O-])ccc2N1 [Clonazepam, clonazepam]	–	–	–	–	Changed number of impulses to the control in % (Vogel Conflict Test; rat, 0.1 mg/kg p.o.): 122%; Changed number of impulses to the control in % (Vogel Conflict Test; rat, 0.3 mg/kg p.o.): 128%; Changed number of impulses to the control in % (Vogel Conflict Test; rat, 1.0 mg/kg p.o.): 173%; dose from which an anxiolytic action was detected / equally effective dose (Vogel Conflict Test; rat, p.o.): 1 mg/kg
O=C1C=C(N2CCOCC2)CN1c1ccc(F)cc1 [Compound 3, 1-(4-fluorophenyl)-4-morpholin-4-yl-1,5-dihydropyrrol-2-one]	–	226 to 229	50	33	–
COc1cc(N2CC(N3CCOCC3)=CC2=O)cc(OC)c1OC [Compound 11, 4-morpholin-4-yl-1-(3,4,5-trimethoxyphenyl)-1,5-dihydropyrrol-2-one]	0	179 to 182	–	–	responders at 300 mg/kg (s.c. pentetrazole): 66%
COCCN(CCOC)C1=CC(=O)N(c2ccc(Cl)cc2)C1 [Compound 24, 1-(4-chlorophenyl)-4-(bis(methoxyethyl)amino)-1,5-dihydropyrrol-2-one]	33	189 to 195	–	–	responders at 300 mg/kg (s.c. pentetrazole): 66%
CC1CCN(C2=CC(=O)N(c3ccc(Cl)cc3)C2)CC1 [Compound 18, 1-(4-chlorophenyl)-4-(4-methylpiperidin-1-yl)-1,5-dihydropyrrol-2-one]	–	194 to 196	66	66	–
CN1CCN(C2=CC(=O)N(c3ccc(Cl)cc3)C2)CC1 [Compound 21, 1-(4-chlorophenyl)-4-(4-methylpiperazin-1-yl)-1,5-dihydropyrrol-2-one]	–	194 to 197	66	100	–
CCCC(CCC)C(=O)O [Valproate, reference compound]	–	–	0	30	–
O=C1C=C(N2CCOCC2)CN1c1ccc(C(F)(F)F)cc1 [Compound 8, 4-morpholin-4-yl-1-(4-trifluoromethylphenyl)-1,5-dihydropyrrol-2-one]	–	205 to 207	66	100	–
